Results taken from US10189816B2, “Substituted pyridines as inhibitors of human immunodeficiency virus replication” (priority 2015, dated 2019).
Read-outs that look alike come from different tables or passages of the source.

Tested on: NL-RLuc virus
Test: Inhibition of HIV replication (NL-RLuc reporter virus in MT-2 cells, luciferase readout)
Assay type: cell-based
Settings: Human immunodeficiency virus 1, MT2, 120 h
Procedure, shortened: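 MT-2 cells infected with NL4-3-derived NL-RLuc reporter virus (Renilla luciferase replacing part of nef) with serial compound dilutions, RPMI 1640 + 10% FBS; 5 days. Growth by luciferase; EC50 from median effect equation, ≥2 experiments.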

Row | Structure (SMILES) | EC50 (read-out: Activity) [µM] | EC50 (read-out: EC50 μM) [µM]
1 | COc1cc(CN2CCc3cc(-c4c(C)nc(C)c([C@H](OC(C)(C)C)C(=O)O)c4N4CCC(C)(C)CC4)ccc3C2)ccc1Cl [Compound 138, (S)-2-(tert-butoxy)-2-(5-(2-(4-chloro-3-methoxybenzyl)-1,2,3,4-tetrahydroisoquinolin-6-yl)-4-(4,4-dimethylpiperidin-1-yl)-2,6-dimethylpyridin-3-yl)acetic acid] | < 0.1 | 
2 | COc1ccc(C(C)C)cc1CN1CCc2cc(-c3c(C)nc(C)c([C@H](OC(C)(C)C)C(=O)O)c3N3CCC(C)(C)CC3)ccc2C1 [Compound 139, (S)-2-(tert-butoxy)-2-(4-(4,4-dimethylpiperidin-1-yl)-5-(2-(5-isopropyl-2-methoxybenzyl)-1,2,3,4-tetrahydroisoquinolin-6-yl)-2,6-dimethylpyridin-3-yl)acetic acid] | < 0.1 | 0.03
3 | COc1cc(CN2CCc3cc(-c4c(C)nc(C)c([C@H](OC(C)(C)C)C(=O)O)c4N4CCC(C)(C)CC4)ccc3C2)ccc1C [Compound 140, (S)-2-(tert-butoxy)-2-(4-(4,4-dimethylpiperidin-1-yl)-5-(2-(3-methoxy-4-methylbenzyl)-1,2,3,4-tetrahydroisoquinolin-6-yl)-2,6-dimethylpyridin-3-yl)acetic acid] | < 0.1 | 
4 | COc1ccc(CN2CCc3cc(-c4c(C)nc(C)c([C@H](OC(C)(C)C)C(=O)O)c4N4CCC(C)(C)CC4)ccc3C2)cc1C [Compound 141, (S)-2-(tert-butoxy)-2-(4-(4,4-dimethylpiperidin-1-yl)-5-(2-(4-methoxy-3-methylbenzyl)-1,2,3,4-tetrahydroisoquinolin-6-yl)-2,6-dimethylpyridin-3-yl)acetic acid] | < 0.1 | 
5 | COc1c(F)cccc1CN1CCc2cc(-c3c(C)nc(C)c([C@H](OC(C)(C)C)C(=O)O)c3N3CCC(C)(C)CC3)ccc2C1 [Compound 142, (S)-2-(tert-butoxy)-2-(4-(4,4-dimethylpiperidin-1-yl)-5-(2-(3-fluoro-2-methoxybenzyl)-1,2,3,4-tetrahydroisoquinolin-6-yl)-2,6-dimethylpyridin-3-yl)acetic acid] | < 0.1 | 
6 | COc1ccc(CN2CCc3cc(-c4c(C)nc(C)c([C@H](OC(C)(C)C)C(=O)O)c4N4CCC(C)(C)CC4)ccc3C2)cc1C(C)C [Compound 143, (S)-2-(tert-butoxy)-2-(4-(4,4-dimethylpiperidin-1-yl)-5-(2-(3-isopropyl-4-methoxybenzyl)-1,2,3,4-tetrahydroisoquinolin-6-yl)-2,6-dimethylpyridin-3-yl)acetic acid] | < 0.1 | 
7 | Cc1nc(C)c([C@H](OC(C)(C)C)C(=O)O)c(N2CCC(C)(C)CC2)c1-c1ccc2c(c1)CCN(Cc1c(O)cc(F)cc1F)C2 [Compound 144, (S)-2-(tert-butoxy)-2-(5-(2-(2,4-difluoro-6-hydroxybenzyl)-1,2,3,4-tetrahydroisoquinolin-6-yl)-4-(4,4-dimethylpiperidin-1-yl)-2,6-dimethylpyridin-3-yl)acetic acid] | < 0.1 | 0.008
8 | COc1cccc(Cl)c1CN1CCc2cc(-c3c(C)nc(C)c([C@H](OC(C)(C)C)C(=O)O)c3N3CCC(C)(C)CC3)ccc2C1 [Compound 145, (S)-2-(tert-butoxy)-2-(5-(2-(2-chloro-6-methoxybenzyl)-1,2,3,4-tetrahydroisoquinolin-6-yl)-4-(4,4-dimethylpiperidin-1-yl)-2,6-dimethylpyridin-3-yl)acetic acid] | < 0.1 | 
9 | COc1ccc(CN2CCc3cc(-c4c(C)nc(C)c([C@H](OC(C)(C)C)C(=O)O)c4N4CCC(C)(C)CC4)ccc3C2)c(F)c1 [Compound 146, (S)-2-(tert-butoxy)-2-(4-(4,4-dimethylpiperidin-1-yl)-5-(2-(2-fluoro-4-methoxybenzyl)-1,2,3,4-tetrahydroisoquinolin-6-yl)-2,6-dimethylpyridin-3-yl)acetic acid] | < 0.1 | 
